Assay [1] concerns the target T1, Bacillus subtilis FtsZ (Bacillus subtilis, UniProt P17865). The assay is described as follows: 90°-angle light scattering assay of FtsZ polymerization. The conditions noted are these: compound 40 μM; for Maximal Light Scattering: readout of extent of polymerization, no compound: 3.40; for Time to Reach Half-Maximal Light Scattering: readout of rate of polymerization, no compound: 91.6. It is filed as biochemical. How it is done: B[c]P inhibition of FtsZ polymerization can be tested using a 90°-angle light scattering assay for monitoring drug impact on FtsZ polymerization. This assay is premised on the increased light scattering properties of polymeric FtsZ relative to the monomeric form of the protein. To this end, the light scattering at 600 nm of 5 μM FtsZ is continuously monitored under polymerization conditions in the absence or presence of a B[c]P compound at concentrations ranging from 40 to 80 μM.
Polymerization is initiated by addition of 0.5 mM GTP. The rate and extent of FtsZ polymerization can be quantified by analyzing the light scattering profiles to derive maximal light scattering values (which provide a readout of the extent of polymerization) as well as the times required to reach half-maximal light scattering values (which provide a readout of the rate of polymerization).

In assay [2] the test system is Staphylococcus aureus. The assay is described as follows: Planktonic antibacterial broth microdilution assay. It is filed as cell-based. The conditions noted are these: 24 hours continuous drug exposure. On the technique in general: Dilution methods test growth across graded concentrations, often in twofold steps.
The subject of assay [3] is Mycobacterium tuberculosis. The assay is described as follows: Planktonic antibacterial broth microdilution assay. It is filed as cell-based. The conditions noted are these: 24 hours continuous drug exposure.
Assay [4] deals with Enterococcus faecalis. As to the kind of experiment: Planktonic antibacterial broth microdilution assay. It is filed as cell-based. The conditions noted are these: 24 hours continuous drug exposure.
Assay [5] has as its system Bacillus subtilis. As to the kind of experiment: Planktonic antibacterial broth microdilution assay. Type of assay: cell-based. The conditions noted are these: 24 hours continuous drug exposure.
In assay [6] the test system is MRSA. As to the kind of experiment: Planktonic antibacterial broth microdilution assay. Particulars: Staphylococcus aureus.
Assay [7] has as its target T1, Bacillus subtilis FtsZ. As to the kind of experiment: Fluorescence-based competition binding assay (displacement of BODIPY-GTPγS from FtsZ). Particulars: FIG. 8; reduction reflects binding to FtsZ and release of BODIPY-GTPγS. The source says:
B[c]P binding to FtsZ can be tested using a fluorescence-based competition binding assay using purified FtsZ and a commercially available GTPγS analog where the nucleotide is covalently conjugated via its sulfur atom to the fluorescent dye BODIPY (DIPYrromethene BOron difluoride). Upon binding to FtsZ, BODIPY-GTPγS undergoes a dramatic increase in fluorescence emission intensity (I) at 510 nm. This binding-induced change in BODIPY-GTPγS fluorescence provides the dissociation constant (Kd-GTP) of the nucleotide for the protein through analysis of fluorescence titration profiles with the following formalism, which is predicated on a one-to-one binding stoichiometry:
[formula] I0 and I are the fluorescence emission intensities of BODIPY-GTPγS in the absence and presence of a given FtsZ concentration, respectively, I∞ is the fluorescence emission intensity of BODIPY-GTPγS in the presence of an infinite FtsZ concentration, and [GTP]tot and [FtsZ]tot are the total concentrations of BODIPY-GTPγS and FtsZ, respectively. […]
I0 and I are the fluorescence emission intensities of the FtsZ-BODIPY-GTPγS complex in the absence and presence of a given compound concentration, respectively, I∞ is the fluorescence emission intensity of the FtsZ-BODIPY-GTPγS complex in the presence of infinite compound concentration, [Compd]tot is the total compound concentration, and p is the Hill slope. […]

Read-outs that look alike come from different tables or passages of the source. Some results are limits rather than exact numbers.

T1 sequence (P17865 whole entry): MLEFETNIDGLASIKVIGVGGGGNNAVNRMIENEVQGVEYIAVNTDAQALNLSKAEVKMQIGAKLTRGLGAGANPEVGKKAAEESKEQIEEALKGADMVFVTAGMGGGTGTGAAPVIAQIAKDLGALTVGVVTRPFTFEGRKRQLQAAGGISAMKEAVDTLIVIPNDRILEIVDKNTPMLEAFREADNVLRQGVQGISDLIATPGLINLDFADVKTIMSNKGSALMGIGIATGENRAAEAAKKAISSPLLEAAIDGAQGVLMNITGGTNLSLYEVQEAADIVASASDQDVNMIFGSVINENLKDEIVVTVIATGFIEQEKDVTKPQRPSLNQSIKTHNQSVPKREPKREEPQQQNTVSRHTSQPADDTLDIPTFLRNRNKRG

The MIC is the lowest concentration that inhibits growth of the organism. On to `COc1ccc2c(c[n+](C)c3c4cc5c(cc4ccc23)OCO5)c1OC` [Chelerythrine], for which the “Maximal Light Scattering” value in assay [1] is given as 2.83 a.u. The “Time to Reach Half-Maximal Light Scattering” value in assay [1] came to 205.3 s. The MIC in assay [2] turned out to be 8 µg/mL; in assay [3], 8 µg/mL; in assay [4], 32 µg/mL; in assay [5] it was 4 µg/mL; in assay [6] (24 h, read-out: MRSA MIC), 16 µg/mL. Consider `COc1cc2ccc3c4ccc5c(c4c[n+](C)c3c2cc1OC)OCO5` [Comparative Example 1, reference compound], for which, in assay [6] (read-out: MIC vs. MRSA), the MIC is 32 µg/mL. Same read-out and setting: as for `COc1cc2ccc3c4ccc(OC)c(OC)c4c[n+](C)c3c2cc1OC` [Comparative Example 2, reference compound], the figure is 64 µg/mL.

On to `COc1cc2c(ccc3c4ccc5c(c4c[n+](C)c23)OCO5)c(-c2ccc(-c3ccccc3)cc2)c1OC` [Example 3, 8-Biphenyl-4-yl-9,10-dimethoxy-12-methyl-1,3-dioxa-12-azoniacyclopenta[a]chrysene chloride], for which, in assay [1], the “Maximal Light Scattering” value came out at 1.76 a.u. Further, in assay [1], the “Time to Reach Half-Maximal Light Scattering” value worked out at 600.5 s. In addition, the MIC in assay [2] is 2 µg/mL; in assay [3] it was 4 µg/mL; in assay [4] it was 16 µg/mL; in assay [5], 2 µg/mL; in assay [6] (24 h, read-out: MRSA MIC), 8 µg/mL; in assay [6] (read-out: MIC vs. MRSA) it was less than 16 µg/mL. For the same compound, the “fluorescence of FtsZ-bound BODIPY-GTPγS upon addition of compound” value in assay [7] is “decreases”. As to `COc1cc2c(ccc3c4ccc5c(c4c[n+](C)c23)OCO5)c(-c2ccccc2)c1OC` [Example 4], in assay [6] (read-out: MIC vs. MRSA), the MIC is less than 16 µg/mL. Same read-out and setting: as for `COc1cc2c(ccc3c4ccc5c(c4c[n+](C)c23)OCO5)c(Cc2ccccc2)c1OC` [Example 5], the figure is less than 16 µg/mL; as for `COc1ccc(-c2c(OC)c(OC)cc3c2ccc2c4ccc5c(c4c[n+](C)c32)OCO5)cc1` [Example 6], less than 16 µg/mL. Same read-out and setting: in the case of `COc1cc2c(ccc3c4ccc(OC)c(OC)c4c[n+](C)c23)c(-c2ccc(-c3ccccc3)cc2)c1OC` [Example 7] it was less than 16 µg/mL; in that of `COc1cc2c(ccc3c4ccc(OC)c(OC(C)C)c4c[n+](C)c23)c(-c2ccccc2)c1OC` [Example 8], less than 16 µg/mL; in that of `COc1cc2c(ccc3c4ccc(OC)c(OC)c4c[n+](C)c23)c(C2=CCCCC2)c1OC` [Example 9], less than 16 µg/mL. Still for that read-out and setting: as for `COc1cc2c(ccc3c4ccc(OC)c(OC)c4c[n+](C)c23)c(C2CCCCC2)c1OC` [Example 10], the figure is less than 16 µg/mL; as for `COc1cc2c(ccc3c4ccc(OC)c(OC)c4c[n+](C)c23)c(C2CC2)c1OC` [Example 11], less than 16 µg/mL; as for `COc1cc2c(ccc3c4ccc(OC)c(OC)c4c[n+](C)c23)c(-c2ccccc2)c1OC` [Example 12], less than 16 µg/mL. `COc1cc2c(-c3ccc(-c4ccccc4)cc3)cc3c4ccc5c(c4c[n+](C)c3c2cc1OC)OCO5` [Example 13]: in assay [6] (read-out: MIC vs. MRSA), the MIC is less than 16 µg/mL. Still for that read-out and setting: as for `COc1cc2c(-c3ccccc3)cc3c4ccc(OC)c(OC)c4c[n+](C)c3c2cc1OC` [Example 14], the figure is less than 16 µg/mL; as for `COc1cc(-c2c(OC)c(OC)cc3c2ccc2c4ccc(OC)c(OC)c4c[n+](C)c32)cc(OC)c1OC` [Example 15], less than 16 µg/mL. Same read-out and setting: in the case of `COc1cc2c(ccc3c4ccc(OC)c(OC)c4c[n+](C)c23)c(-c2ccc(N(C)C)cc2)c1OC` [Example 16] it was less than 16 µg/mL; in that of `COc1cc2c(ccc3c4ccc(OC)c(OC)c4c[n+](C)c23)c(-c2ccoc2)c1OC` [Example 17], less than 16 µg/mL; in that of `COc1cc2c(ccc3c4ccc(OC)c(OC)c4c[n+](C)c23)c(-c2ccc(S(=O)(=O)N(C)C)cc2)c1OC` [Example 18], less than 16 µg/mL. Still for that read-out and setting: as for `COc1cc2c(ccc3c4ccc(OC)c(OC)c4c[n+](C)c23)c(-c2ccc(CCN3CCOCC3)cc2)c1OC` [Example 19], the figure is less than 16 µg/mL; as for `COc1ccc2c(c1OC)CN(C)c1c-2ccc2c(-c3ccc(-c4ccccc4)cc3)c(OC)c(OC)cc12` [Example 20], less than 16 µg/mL. As for `COc1ccc2c(c1OC)CN(C)c1c-2ccc2c(C3CC3)c(OC)c(OC)cc12` [Example 21], in assay [6] (read-out: MIC vs. MRSA), the minimal inhibitory concentration (MIC) was less than 16 µg/mL. Same read-out and setting: as for `COc1cc2c(ccc3c4ccc(OC)c(OC)c4c[n+](C)c23)c(-c2cccnc2)c1OC` [Example 22], the figure is less than 16 µg/mL.

On to `COc1cc2c(-c3ccc(-c4ccccc4)cc3)cc3c4ccc(OC)c(OC)c4c[n+](C)c3c2cc1OC` [Example 23], for which the MIC in assay [6] (read-out: MIC vs. MRSA) was less than 16 µg/mL. For the compound `COc1ccc2c(c1OC)C(N)N(C)c1c-2ccc2c(-c3ccc(-c4ccccc4)cc3)c(OC)c(OC)cc12` (stereo not drawn) [Example 24], in assay [6] (read-out: MIC vs. MRSA), the MIC is less than 16 µg/mL.

With `COc1ccc2c(c1OC)C(OC)N(C)c1c-2ccc2c(-c3ccc(-c4ccccc4)cc3)c(OC)c(OC)cc12` (stereo not drawn) [Example 25], the MIC in assay [6] (read-out: MIC vs. MRSA) was less than 16 µg/mL. Take `C[n+]1cc2c3c(ccc2c2ccc4cc5c(cc4c21)OCO5)OCO3` [Sanguinarine]: the MIC came out at 8 µg/mL in assay [2]; 8 µg/mL in assay [3]; 32 µg/mL in assay [4]; 4 µg/mL in assay [5]; 16 µg/mL in assay [6] (24 h, read-out: MRSA MIC).

The record behind these values is US8741917B2, “Benzo [C] phenanthridines as antimicrobial agents” (Rutgers, The State University of New Jersey, priority 2009, dated 2014).
